From patent US6815419B1, “Antiulcer agent” (Morinaga Milk Industry Co., Ltd., priority 1999, dated 2004)

Tests used:
[1] = tested on: CD (SD) rats; assay: Acute toxicity of single oral administration in rats; type: in vivo; settings: for Number of deaths/Total number, Female: female rats; for Number of deaths/Total number, Male: male rats
Experimental: Male and Female CD (SD) rats, 6 weeks old, purchased from Japan SLC CO., Ltd.) were respectively and randomly classified into three groups (each consisting of five rats) to be used for this experiment.
Commercially available α-lactalbumin (manufactured by Sigma Co., Ltd.) was dissolved in water for injection (manufactured by Otsuka Pharmaceutical Co., Ltd.) to each of a concentration of 100 mg/ml and 200 mg/ml, which were respectively and orally administered in an amount of 1 ml per 100 g of body weight (at each dose of 1000 mg and 2000 mg per 1 kg of rat body weight) to each rat of each group by single oral instillation by means of a metal probe with a rounded tip, in order to examine the acute toxicity. As a blank test, only water for injection (manufactured by Otsuka Pharmaceutical Co., Ltd.) was administered in the same way to each rat of both groups of males and females.

[2] = tested on: stress-induced ulcers; assay: Test Method 2: stress-induced ulcers in rats (restraint and water immersion, Takagi and Okabe); type: in vivo, Wistar rats; settings: test group 3; sum of scores of ten rats; oral 10 mg/kg, 1 mg/ml; 7 hours restraint in water at 23° C.; blank 50
Experimental: (§1) Male Wistar rats weighing 230 to 270 g, 11 weeks old, (purchased from Japan SLC CO., Ltd.) were randomly classified into six groups (each consisting of ten rats).
(§2) As test agents (antiulcer agents including α-lactalbumin of the present invention as an active ingredient), commercially available α-lactalbumin (manufactured by Sigma Co., Ltd.) was dissolved in distilled water to a concentration of 1 mg/ml to be used. As a test agent for a blank test, distilled water was used.
This experiment was carried out in a manner identical to Method 1 described above, except that ulcers were induced according to the method described by Takagi and Okabe (Japanese Journal of Pharmacology, volume 18, pages 9 to 18, 1968). That is, rats fasted for 24 hours were orally administered with each test agent including at a dose of 10 mg/kg of an active ingredient in body weight (test group number 3). The test agent for a blank test was orally administered to rats in an amount of 10 ml/kg body weight (test group number 4). After 30 minutes, each rat was held in a stainless steel restrictive cage, and was left in a water tank at 23° C., standing and submerging to the depth of the bottom of the breast xiphoid process of the rat.
After 7 hours, each rat was pulled up from the water tank, and the degree of ulcers was measured in a manner identical to Method 1 described above.

[3] = tested on: ulcers caused by indomethacin; assay: Test Method 3: ulcers caused by a nonsteroidal anti-inflammatory drug (indomethacin) in rats; type: in vivo, Wistar rats; settings: test group 5; sum of scores of ten rats; oral 10 mg/kg, 1 mg/ml; 7 hours after indomethacin 30 mg/kg oral; blank 50
Experimental: as §1, §2
This experiment was carried out in a manner identical to Method 1 described above, except that ulcers were induced in accordance with the method of Okabe, et al. (Japanese Journal of Pharmacology, volume 29, pages 670 to 673, […]). That is, rats fasted for 24 hours were orally administered with the each test agent at a dose of 10 mg/kg of an active ingredient in body weight (test group number 5). The test agent for a blank test was orally administered to each rat in an amount of 10 ml/kg body weight (test group number 6). After 30 minutes, indomethacin at a dose of 30 mg/kg body weight, which is a representative nonsteroidal anti-inflammatory drug, was orally administered.
After 7 hours, the degree of ulcers was measured in a manner identical to Method 1 described above.

[4] = tested on: alcohol-induced ulcers; assay: Test Method 1: alcohol-induced ulcers in rats, stomach examined after 7 hours; type: in vivo, Wistar rats; settings: test group 1; sum of scores of ten rats; oral 10 mg/kg, 1 mg/ml; 7 hours after HCl/ethanol; blank 50
Experimental: as §1, §2
This experiment was carried out according to the method disclosed by Robert et al. (Gastroenterology, volume 77, pages 433 to 443, 1979) in a manner similar to Example 1. That is, rats fasted for 24 hours were orally administered with each test agent at a dose of 10 mg/kg of an active ingredient in body weight (test group number 1). The test agent for a blank test was orally administered to rats in an amount of 10 ml/kg in body weight (test group number 2). […]
After 7 hours, the rats were killed by ether inhalation, the stomach of each rat was taken out to the body surface, the pyloric part of the stomach was ligated, and then the stomach was removed. […] Then, the curvatura ventriculi major of the stomach fixed by formalin was cut to open, and the degree of ulcers was measured in a manner identical to Example 1.

[5] = tested on: hydrochloric acid and ethanol induced lesions on the mucous membrane of the stomach; assay: Hydrochloric acid and ethanol induced ulcer in rats (method of Robert et al.), stomach examined after 1 hour; type: in vivo, Wistar rats; settings: for Cumulative degree of lesions on mucous membrane: blank 60
Experimental: Male Wistar rats weighing 230 to 270 g, 11 weeks old, (purchased from Japan SLC CO., Ltd.) were randomly classified into five groups (each consisting of ten rats).
The experiment was carried out according to the method disclosed by Robert et al. (Gastroenterology, volume 77, pages 433 to 443, 1979). That is, rats were fasted for 24 hours and were orally administered with each test agent at a dose of 10 mg/kg of an active ingredient in body weight. Test agent 1 for a blank test was orally administered to the rats in an amount of 10 ml/kg body weight. After 30 minutes, hydrochloric acid and ethanol solution [hydrochloric acid and ethanol solution (M=mol/dm^3) prepared by mixing 500 mM of hydrogen chloride (HCl) solution and 75% ethanol solution at a volume ratio of […])] was orally administered to the rats at a dose of 5 ml/kg body weight.
After 1 hour, the rats were killed by ether inhalation, the stomach of each rat was taken out to the body surface, the pyloric part of the stomach was ligated, and then the stomach was removed. Then, 10 ml of 2% formalin solution was injected into the stomach from the cardiac part thereof, and the stomach was subsequently immersed in the formalin solution for 10 minutes for fixation. Then, the curvatura ventriculi major of the stomach fixed by formalin was cut to open, and the degree of ulcers was measured by the following method.
That is, the total area of injured portions on the mucous membrane of each rat was measured, and then the degree of lesions on the mucous membrane of each rat (score) was classified into six grades as shown in Table 1 in accordance with the total area of the injured portion.
This experiment was carried out in a manner identical to Example 1, except that α-lactalbumin included in the test agents as an active ingredient was respectively orally administered at a dose of 0 mg/kg body weight (blank test), 1 mg/kg body weight, 10 mg/kg body weight, or 100 mg/kg body weight.
This experiment was carried out in a manner identical to Example 1, except that α-lactalbumin included as an active ingredient in each test agent was respectively orally administered at a dose of 10 mg/kg body weight. The dose for the blank test was 0 mg/kg body weight.

α-lactalbumin was tested, and the “Number of deaths/Total number, Female” value ([1]; single oral dose 1000 mg/kg) was 0/5, the “Number of deaths/Total number, Female” value ([1]; single oral dose 2000 mg/kg) was 0/5 and the “Number of deaths/Total number, Male” value ([1]; single oral dose 1000 mg/kg) was 0/5. For the same substance, the “Number of deaths/Total number, Male” value ([1]; single oral dose 2000 mg/kg) was 0/5, the LD50 ([1]; rats, single oral administration) was “no less than 2000 mg/kg body weight” and the “Cumulative degree of lesions on mucous membrane” value (from here on “Cumulative degree of lesions”) [2] was 12. The “Cumulative degree of lesions” value [3] was 23, the “Cumulative degree of lesions” value [4] was 6 and the “Concentration of test agent that shows antiulcer effects” value ([5]; oral dose fixed at 10 mg/kg) was “no less than 0.5 mg/ml”. For the same substance, the “Concentration of test agent that shows significant antiulcer effects” value ([5]; oral dose fixed at 10 mg/kg) was “no less than 1 mg/ml”, the “Effective dose for oral administration” value ([5]; rats, oral, significant antiulcer effects) was “no less than 10 mg per 1 kg of body weight” and the “Cumulative degree of lesions” value ([5]; sum of scores (0-6, Table 1) of ten rats, oral 10 mg/kg active ingredient, 1 mg/ml, 30 min before HCl/ethanol) was 7. The “Cumulative degree of lesions” value ([5]; sum of scores of ten rats, concentration 0.25 mg/ml, oral dose 10 mg/kg) was 30, the “Cumulative degree of lesions” value ([5]; sum of scores of ten rats, concentration 0.5 mg/ml, oral dose 10 mg/kg) was 13 and the “Cumulative degree of lesions” value ([5]; sum of scores of ten rats, concentration 1 mg/ml, oral dose 10 mg/kg) was 7. For the same substance, the “Cumulative degree of lesions” value ([5]; sum of scores of ten rats, concentration 5 mg/ml, oral dose 10 mg/kg) was 5, the “Cumulative degree of lesions” value ([5]; sum of scores of ten rats, concentration 10 mg/ml, oral dose 10 mg/kg) was 5 and the “Cumulative degree of lesions” value ([5]; sum of scores of ten rats, oral dose 1 mg/kg, 1 mg/ml) was 47. For the same substance, the “Cumulative degree of lesions” value ([5]; sum of scores of ten rats, oral dose 10 mg/kg, 1 mg/ml) was 7 and the “Cumulative degree of lesions” value ([5]; sum of scores of ten rats, oral dose 100 mg/kg, 1 mg/ml) was 3.
